Patent US4154932A (priority 1977, dated 1979)

How the values were obtained:
[1] = test system: phenylquinone induced writhings; experiment: animal or person; conditions: Mus musculus, sc, read-out: Agonist Activity, Phenylquinone Writhing ED50
Protocol: In vivo testing was conducted on many of the compounds of the present invention.

[2] = test system: Straub Tail induced by oxymorphone; experiment: Antagonism of oxymorphone-induced Straub Tail (antagonist activity); assay type: in vivo, mouse; conditions: Mus musculus, sc, mice; Table 1; oxymorphone 2 mg/kg, s.c.; read-out: Antagonist Activity, Oxymorphone Straub Tail ED50
Protocol: ^2 Antagonism of Straub Tail induced by oxymorphone (2 mg/kg, s.c.) i

## COc1ccc2c(c1)[C@]13CCN(C)[C@H](C2)[C@@H]1CCOC3 (racemic) [(±)-V, 3-Methoxy-17-methyl-6-oxamorphinan]
[1]
  ED50: 1.32 mg/kg
[2]
  ED50: > 20 mg/kg

## COc1ccc2c(c1)[C@]13CCN[C@H](C2)[C@@H]1CCOC3 (racemic) [(±)-VIII, 3-methoxy-6-oxamorphinan]
[1]
  ED50: ~40 mg/kg
[2]
  ED50: > 40 mg/kg

## CN1CCC23COCCC2C1Cc1ccc(O)cc13 (racemic) [(±)-VI]
[1]
  ED50: 0.34 mg/kg
[2]
  ED50: > 40 mg/kg

## COc1ccc2c(c1)[C@]13CCN(CC4CC4)[C@H](C2)[C@@H]1CCOC3 (racemic) [(±)-X, 17-Cyclopropylmethyl-3-methoxy-6-oxamorphinan]
[1]
  ED50: 0.38 mg/kg
[2]
  ED50: 10 mg/kg

## Oc1ccc2c(c1)[C@]13CCN(CC4CC4)[C@H](C2)[C@@H]1CCOC3 (racemic) [(±)-XI, 17-Cyclopropylmethyl-3-hydroxy-6-oxamorphinan]
[1]
  ED50: 0.037 mg/kg
[2]
  ED50: 0.76 mg/kg

## COc1ccc2c(c1)[C@]13CCN(CC4CCC4)[C@H](C2)[C@@H]1CCOC3 (racemic) [(±)-XIII, 17-Cyclobutylmethyl-3-methoxy-6-oxamorphinan]
[1]
  ED50: 0.38 mg/kg
[2]
  ED50: ~15 mg/kg
